Experimental data reported in PubChem BioAssay (NCI).
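96-well plates; 48 h exposure; 5 concentrations. Endpoints by linear interpolation between flanking doses. Not reached: highest tested concentration assigned. Here, GI50 denotes the concentration required for 50% inhibition of growth. TGI denotes the concentration required for complete inhibition of growth.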

Assays:
Experiment in all cases: inhibition of tumour cell growth, NCI panel, 48 h
[1] = system: UACC-62 melanoma
[2] = system: T-47D breast
[3] = system: SN12C renal
[4] = system: LOX IMVI melanoma
[5] = system: HCC-2998 colon
[6] = system: NCI-H226 lung
[7] = system: SF-295 CNS
[8] = system: SK-OV-3 ovarian
[9] = system: M14 melanoma
[10] = system: PC-3 prostate
[11] = system: SNB-75 CNS
[12] = system: RXF 393 renal
[13] = system: CCRF-CEM leukemia
[14] = system: SK-MEL-2 melanoma
[15] = system: U251 CNS
[16] = system: OVCAR-3 ovarian
[17] = system: DU-145 prostate
[18] = system: OVCAR-4 ovarian
[19] = system: A549 NSCLC
[20] = system: NCI-H460 lung
[21] = system: RPMI-8226 leukemia
[22] = system: UACC-257 melanoma
[23] = system: HOP-92 NSCLC
[24] = system: HOP-62 NSCLC

## COC(=O)c1ccc(NC2=C(Cl)C(=O)C(C)=C(C)C2=O)cc1
[1]
  TGI: 5.53 µM
[2]
  GI50: 1.74 µM
  TGI: 4.72 µM
[3]
  GI50: 9.11 µM
  TGI: > 100 µM
[4]
  GI50: 1.81 µM
  TGI: 3.41 µM
[5]
  GI50: 3.84 µM
  TGI: > 100 µM
[6]
  GI50: 5.82 µM
  TGI: > 100 µM
[7]
  GI50: 2.18 µM
  TGI: 6.64 µM
[8]
  GI50: 5.13 µM
  TGI: > 100 µM
[9]
  GI50: 2.84 µM
  TGI: 40.5 µM
[10]
  GI50: 2.63 µM
  TGI: > 100 µM
[11]
  GI50: 1.6 µM
  TGI: 7.31 µM
[12]
  GI50: 1.75 µM
  TGI: 4.25 µM
[13]
  GI50: 1.08 µM
  TGI: 4.98 µM
[14]
  GI50: 3.2 µM
  TGI: > 100 µM
[15]
  GI50: 3.77 µM
  TGI: > 100 µM
[16]
  GI50: 1.81 µM
  TGI: 3.3 µM
[17]
  GI50: 11.2 µM
  TGI: > 100 µM
[18]
  GI50: 1.73 µM
  TGI: 3.14 µM
[19]
  GI50: 5.25 µM
  TGI: > 100 µM
[20]
  GI50: 4.7 µM
  TGI: > 100 µM
[21]
  GI50: 2.19 µM
  TGI: 5.29 µM
[22]
  GI50: 3.07 µM
  TGI: > 100 µM
[23]
  GI50: 1.46 µM
  TGI: 3.11 µM
[24]
  GI50: 5.52 µM
  TGI: > 100 µM
